In patent US7538241B2, “Hsp90 family protein inhibitors” (Kyowa Hakko Kogyo Co., Ltd., priority 2003, dated 2009) one finds GI50 data, which are given here for 25 compounds.

Common to all, as to format: cell-based
Test [1] concerns human multiple myeloma-derived KMS-11 cells. Kind of test: Cell growth inhibition test with KMS-11 cells (WST-1). The conditions noted are these: 72 hours, read-out: 50% growth inhibition concentration (GI50). As to the method:
In a 96-well plate (Nunc), human multiple myeloma-derived KMS-11 cells were sown in an amount of 4000 cells/well, and pre-incubated in 10% FCS-containing RPMI 1640 (Nissui) (incubation medium) in a 5% carbon dioxide incubator at 37° C. for 24 hours. Next, a DMSO solution of a test compound controlled at 10 mmol/L was stepwise diluted with the incubation medium, and added to each well in a total amount of 100 μL/well, and further incubated in the 5% carbon dioxide incubator at 37° C. for 72 hours. After the incubation, WST-1-labeled mixture (Rosh Diagnostic) diluted 2-fold with the incubation medium was added thereto in an amount of 20 μL/well, and incubated in the 5% carbon dioxide incubator at 37° C. for 2 hours. Using a microplate spectrophotometer (Biorad's Model 550), the absorbance at 450 nm and 655 nm of each well was measured. The cell growth inhibition activity of the test compound was indicated by the 50% growth inhibition concentration (GI50) thereof, like in Test Example 2.
Background: Tetrazolium assays rely on reduction of a dye to a coloured formazan, in cell work by metabolically active cells.

Test [2] concerns human chronic myelocytic leukemia-derived K562 cells. Kind of test: Cell growth inhibition test with K562 cells (WST-1). The conditions noted are these: 72 hours, read-out: 50% growth inhibition concentration (GI50). In outline: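 K562 cells at 1500 cells/well in 10% FCS RPMI 1640, pre-incubated 5 h, then exposed to serially diluted compound for 72 h at 37° C, 5% CO2. Viability read by WST-1 after 2 h (absorbance 450/655 nm); GI50 reported.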

Test [3] relates to human mammary cancer-derived KPL-4 cells. The test is described as follows: Cell growth inhibition test with KPL-4 cells (WST-1). The conditions noted are these: KPL4, 72 hours, read-out: 50% growth inhibition concentration (GI50). In outline:
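Growth inhibition from WST-1 absorbance difference (450 minus 655 nm) after 1 h, relative to untreated control as 100%, giving GI50. KPL-4 cells had 24 h pre-culture in DMEM/10% FCS before 72 h compound exposure at 37 °C under 5% CO2.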

Molecules are shown by their SMILES.

In the case of `COCCc1c(C(C)=O)c(O)cc(O)c1-c1cccc(OC)c1` [Compound 116, 1-[2,4-Dihydroxy-6-(2-methoxyethyl)-5-(3-methoxyphenyl)phenyl]ethanone], the GI50 in test [1], in test [2] and in test [3] was not above 50 µM in each case.

`CCc1c(O)cc(O)c(-c2ccccc2)c1CC(=O)OC` [Compound 52, Methyl 2-ethyl-3,5-dihydroxy-6-phenylphenylacetate]: the GI50 in test [1] and in test [3] was not above 50 µM throughout.

For the compound `COC(=O)Cc1c(Br)c(O)cc(O)c1-c1ccc(CCC(C)=O)o1` [Compound 265, Methyl 2-bromo-3,5-dihydroxy-6-[5-(3-oxobutyl)furan-2-yl]phenylacetate], the GI50 in test [1], in test [2] and in test [3] was not above 50 µM in each case.

For `CCc1c(O)cc(O)c(-c2cccc(OC)c2)c1CCOCCOC` [Compound 138, 6-Ethyl-5-[2-(2-methoxyethoxy)ethyl]-4-(3-methoxyphenyl)benzene-1,3-diol], the GI50 in test [1], in test [2] and in test [3] was not above 50 µM each time.

Turning to `CCc1c(O)cc(O)c(-c2cccc(O)c2)c1CCOCCOC` [Compound 166, 6-Ethyl-4-(3-hydroxyphenyl)-5-[2-(2-methoxyethoxy)ethyl]benzene-1,3-diol], the GI50 in test [1], in test [2] and in test [3] was not above 50 µM in each case.

Turning to `COCCc1c(C(C)=O)c(O)cc(O)c1-c1cccc(C)c1` [Compound 122, 1-[2,4-Dihydroxy-6-(2-methoxyethyl)-5-(3-methylphenyl)phenyl]ethanone], the GI50 in test [1], in test [2] and in test [3] was not above 50 µM throughout.

In the case of `CCc1c(O)cc(O)c(-c2cccc(OC)c2)c1CCOC` [Compound 118, 6-Ethyl-5-(2-methoxyethyl)-4-(3-methoxyphenyl)benzene-1,3-diol], the GI50 in test [1], in test [2] and in test [3] was not above 50 µM each time.

In the case of `CCc1c(O)cc(O)c(-c2ccccc2)c1CCO` [Compound 84, 6-Ethyl-5-(2-hydroxyethyl)-4-phenylbenzene-1,3-diol], the GI50 in test [1], in test [2] and in test [3] was not above 50 µM throughout.

Regarding `CCc1c(O)cc(O)c(-c2ccccc2)c1Cc1nn(CCOC)c(=O)o1` [Compound 317, 5-[(2-Ethyl-3,5-dihydroxy-6-phenylphenyl)methyl]-3-(2-methoxyethyl)-3H-1,3,4-oxadiazol-2-one], the GI50 in test [1] and in test [2] was not above 50 µM each time.

On to `CCc1c(O)cc(O)c(-c2cccc(C)c2)c1CC1O[C@@H](CO)[C@H](CO)O1` [Compound 229, 5-{[(4S,5S)-4,5-bis(hydroxymethyl)-1,3-dioxolan-2-yl]methyl}-6-ethyl-4-(3-methylphenyl)benzene-1,3-diol], for which the GI50 in test [1] and in test [2] was not above 50 µM in each case.

On to `COCCc1c(C(C)=O)c(O)cc(O)c1-c1cccc(O)c1` [Compound 134, 1-[2,4-Dihydroxy-5-(3-hydroxyphenyl)-6-(2-methoxyethyl)phenyl]ethanone], for which the GI50 in test [1], in test [2] and in test [3] was not above 50 µM throughout.

On to `CCc1cc(-c2n[nH]c3cc(OC)ccc23)c(O)cc1O` [Compound 276, 6-Ethyl-4-(6-methoxy-1H-indazol-3-yl)benzene-1,3-diol], for which the GI50 in test [1] and in test [3] was not above 50 µM in each case.

Consider `CCc1c(O)cc(O)c(-c2ccc(F)c(C)c2)c1CC1O[C@@H](CO)[C@H](CO)O1` [Compound 300, 5-{[(4S,5S)-4,5-Bis(hydroxymethyl)-1,3-dioxolan-2-yl]methyl}-6-ethyl-4-(4-fluoro-3-methylphenyl)benzene-1,3-diol], for which the GI50 in test [1] and in test [2] was not above 50 µM throughout.

Take `COCCOCCc1c(C(C)=O)c(O)cc(O)c1-c1cccc(C)c1` [Compound 139, 1-{2,4-dihydroxy-6-[2-(2-methoxyethoxy)ethyl]-5-(3-methylphenyl)phenyl}ethanone]: the GI50 in test [1], in test [2] and in test [3] was not above 50 µM each time.

Turning to `COC(=O)Cc1c(Br)c(O)cc(O)c1-c1ccco1` [Compound 238, Methyl 2-bromo-6-(furan-2-yl)-3,5-dihydroxyphenylacetate], the GI50 in test [1], in test [2] and in test [3] was not above 50 µM each time.

Consider `CCc1c(O)cc(O)c(-c2ccco2)c1CCOCCO` [Compound 256, 6-Ethyl-4-(furan-2-yl)-5-[2-(2-hydroxyethoxy)ethyl]benzene-1,3-diol], for which the GI50 in test [1] and in test [2] was not above 50 µM each time.

For `CCc1c(O)cc(O)c(-c2cccc(O)c2)c1CCOCCO` [Compound 174, 6-Ethyl-5-[2-(2-hydroxyethoxy)ethyl]-4-(3-hydroxyphenyl)benzene-1,3-diol], the GI50 in test [1], in test [2] and in test [3] was not above 50 µM in each case.

With `CCc1c(O)cc(O)c(-c2ccccc2)c1CCCOCC(=O)NC` [Compound 159, 2-[3-(2-Ethyl-3,5-dihydroxy-6-phenylphenyl)propoxy]-N-methylacetamide], the GI50 in test [1], in test [2] and in test [3] was not above 50 µM throughout.

In the case of `CCc1c(O)cc(O)c(-c2ccccc2)c1CCc1ocnc1CO` [Compound 210, 6-Ethyl-5-[2-(4-hydroxymethyl-1,3-oxazol-5-yl)ethyl]-4-phenylbenzene-1,3-diol], the GI50 in test [1] and in test [2] was not above 50 µM in each case.

For `CCc1c(O)cc(O)c(-c2ccccc2)c1CCOCC(O)CO` (stereo not shown) [Compound 147, 5-[2-(2,3-Dihydroxypropoxy)ethyl]-6-ethyl-4-phenylbenzene-1,3-diol], the GI50 in test [1], in test [2] and in test [3] was not above 50 µM in each case.

As to `CCc1c(O)cc(O)c(-c2cccs2)c1CCOCCO` [Compound 275, 6-Ethyl-5-[2-(2-hydroxyethoxy)ethyl]-4-(2-thienyl)benzene-1,3-diol], the GI50 in test [1] and in test [2] was not above 50 µM each time.

As for `CCc1c(O)cc(O)c(-c2ccccc2)c1CCCOCCOC` [Compound 146, 6-Ethyl-5-[3-(2-methoxyethoxy)propyl]-4-phenylbenzene-1,3-diol], the GI50 in test [2] and in test [3] was not above 50 µM throughout.

Take `COCCc1c(C(C)=O)c(O)cc(O)c1-c1ccccc1` [Compound 92, 1-[2,4-Dihydroxy-6-(2-methoxyethyl)-5-phenylphenyl]ethanone]: the GI50 in test [1], in test [2] and in test [3] was not above 50 µM throughout.

As for `COCCN(C)C(=O)Cc1c(Br)c(O)cc(O)c1-c1ccccc1` [Compound 37, 2-(2-Bromo-3,5-dihydroxy-6-phenylphenyl)-N-(2-methoxyethyl)-N-methylacetamide], the GI50 in test [2] and in test [3] was not above 50 µM each time.

Consider `C=CCOCCCc1c(CC)c(O)cc(O)c1-c1ccccc1` [Compound 145, 5-(3-Allyloxypropyl)-6-ethyl-4-phenylbenzene-1,3-diol], for which the GI50 in test [2] and in test [3] was not above 50 µM in each case.
